Results as given in article PMC10536132, “Arginine Gemini-Based Surfactants for Antimicrobial and Antibiofilm Applications: Molecular Interactions, Skin-Related Anti-Enzymatic Activity and Cytotoxicity” (Molecules, 2023).

Legend:
[1] = target: porcine pancreatic elastase (Sus scrofa, UniProt P00772); test: Elastase inhibitory assay; assay type: biochemical; settings: 40 µL of 1000 µg/mL stock; EGCG 250 μM
How it was run: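 Porcine pancreatic elastase preincubated 15 min with diluted surfactant samples, then N-succinyl-(Ala)3-p-nitroanilide substrate added in Tris-HCl pH 8.0. Absorbance at 410 nm followed for 2 h; % inhibition from absorbance without versus with sample, in triplicate.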

[2] = tested on: bovine hyaluronidase; test: Hyaluronidase inhibitory activity; assay type: biochemical; settings: negative inhibition values
How it was run: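 Bovine hyaluronidase (7900 units/mL working solution, 0.1 M acetate pH 3.6) was mixed 1:1 with surfactant in 5% DMSO for 20 min at 37 °C, then with CaCl2 (12.5 mM) for 20 min, then sodium hyaluronate (1.2 mg/mL) for 40 min. The p-dimethylaminobenzaldehyde colour was read at 585 nm. % inhibition = (A1−A2)/A1×100.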

[3] = Cell viability, NRU assay; assay type: cell-based, human; settings: human, HaCaT cells (immortal human keratinocytes); NRU, HaCaT, surfactant in solution at 35.6 µg/mL, 24 h; read-out: cellular viability
Protocol: (§1) The immortal human keratinocyte (HaCaT) and the squamous cell carcinoma (A431) were obtained from Celltec, University of Barcelona. The cells were grown in DMEM medium (4.5 g/L glucose) supplemented with 10% (v/v) FBS, 2 mM L-glutamine, 100 U/mL of penicillin and 100 μg/mL of streptomycin at 37 °C under 5% CO2. Cells were routinely cultured in 75 cm^2 culture flasks and were trypsinized using trypsin-EDTA when reached approximately 80% of confluence.
(§2) HaCaT cells (1 × 10^5 cells/mL) and A431 cells (5 × 10^4 cells/mL) were grown at the defined densities into the central 60 wells of a 96-well microplate. Cells were incubated for 24 h under 5% CO2 at 37 °C. The medium was then removed and the cells were incubated with the surfactants (100 μL), previously diluted 1:1 (v/v), reaching a concentration of […] in DMEM medium supplemented with 5% FBS using two different colorimetric methods for quantification, as follows.
(§3) The accumulation of the neutral red dye in the lysosomes of viable, undamaged cells constitutes the basis of the neutral red uptake (NRU) assay. After the cells were incubated for 24 h with the corresponding systems at 35.6 µg/mL, the medium was removed and the surfactants´ solutions were incubated for 3 h with the NRU dye solution (50 μg/mL) dissolved in the medium without FBS and phenol red (Lonza). Cells were then washed with sterile PBS, followed by the addition of 100 μL of a solution containing 50% ethanol absolute and 1% acetic acid in distilled water to extract the non-adhered dye. The microplates were then stirred for 5 min at 25 °C to promote the dissolution. Finally, the absorbance of the resulting solutions was measured at λ = 550 nm using a Bio-Rad 550 microplate reader (Hercules, CA, USA).

[4] = tested on: immortal human keratinocytes (HaCaT); test: Cell viability, NRU assay; assay type: cell-based
Protocol: as §1, §2, §3

Sequence of porcine pancreatic elastase (P00772 27-266): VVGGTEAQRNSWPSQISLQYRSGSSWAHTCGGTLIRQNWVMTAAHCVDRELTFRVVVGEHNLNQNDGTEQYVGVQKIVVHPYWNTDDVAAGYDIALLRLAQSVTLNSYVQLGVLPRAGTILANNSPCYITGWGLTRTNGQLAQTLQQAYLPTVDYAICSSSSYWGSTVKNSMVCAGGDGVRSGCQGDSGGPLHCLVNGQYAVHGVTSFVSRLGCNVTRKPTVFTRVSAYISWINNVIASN

Compound: CCCCCCCCCCCC(=O)NC(CCCNC(=N)N)C(=O)NCCCNC(=O)C(CCCNC(=N)N)NC(=O)CCCCCCCCCCC (stereo not drawn) [C3(LA)2, Bis (N^α-lauroyl arginine 1,3-propane) diamide]
- anti-elastase activity (inhibition) [1]: 17%
- increase of hyaluronidase enzymatic activity [2]: 48.3%
- viability at 24 h, 35.6 µg/mL [3]: 66.2%
- IC50 ([4]; Homo sapiens, NRU method, HaCaT, above the highest tested concentration): > 35.6 µg/mL
- therapeutic index (TI), IC50/MIC ratio ([4]; NRU, HaCaT IC50 versus MIC against the Gram-positive bacteria, E. coli and PA01): higher than one
